Among the data in article PMC11118615, “Cloning, Expression, Characterization and Immobilization of a Recombinant Carboxylesterase from the Halophilic Archaeon, Halobacterium salinarum NCR-1” (Biomolecules, 2024) are Km values, retold here.

The target in the assay is T1, rHsEst (recombinant carboxylesterase HsEst) (Halobacterium salinarum, UniProt Q9HPT9).
T1 construct: gene est; synthetic gene in pTA1392, N-terminal 6xHis-tag, expressed in Haloferax volcanii H1209, HisTrap purified
T1 sequence (Q9HPT9 entry or part of it): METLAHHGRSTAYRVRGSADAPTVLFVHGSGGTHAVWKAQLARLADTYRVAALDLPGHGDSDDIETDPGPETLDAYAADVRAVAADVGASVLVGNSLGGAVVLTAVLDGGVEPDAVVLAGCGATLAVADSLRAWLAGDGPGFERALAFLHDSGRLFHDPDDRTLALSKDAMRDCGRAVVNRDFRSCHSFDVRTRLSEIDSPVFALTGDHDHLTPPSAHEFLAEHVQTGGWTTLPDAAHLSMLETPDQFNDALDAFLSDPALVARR
The assay can be described thus: spectrophotometric p-nitrophenol release, Michaelis-Menten nonlinear fit. It is filed as biochemical. The note with it: free enzyme; pH 8.0 Tris-HCl, 1 M NaCl, 30 °C (methods print 25 °C). The text has this:
spectrophotometric p-nitrophenol release, Michaelis-Menten nonlinear fit on rHsEst (recombinant carboxylesterase HsEst)
With `CC(=O)Oc1ccc([N+](=O)[O-])cc1` [pNPC2, p-nitrophenyl acetate], the Km was 258 ± 51 µM.

Regarding `CCCCC(=O)Oc1ccc([N+](=O)[O-])cc1` [pNPC5, p-nitrophenyl valerate], the Km stood at 78 ± 7 µM.

With `CCCCCCCC(=O)Oc1ccc([N+](=O)[O-])cc1` [pNPC8, p-nitrophenyl octanoate], the Km is 245 ± 26 µM.

For orientation: Km means the concentration of substrate that gives half-maximal velocity.
